Where a SMILES comes first, the peptide text is derived from it. Where no end group is shown, it is not given here. [ ]: non-standard residue; d: D form. The star is where a group is joined. Dansyl = CN(C)c1cccc2c(S(=O)(=O)*)cccc12; PhLac = O=C(O)[C@@H](O)Cc1ccccc1
Legend:
[1] = target: T1, Mint2 PARM 364-570 (Y524W, Y543A) (Homo sapiens, UniProt Q99767, Y524W/Y543A); test: Stopped flow binding kinetics, APP peptides to PARM^Y543A; parameters: made in house; host or cells: Escherichia coli BL21(DE3)pLysS
T1 sequence (Q99767 364-570 Y524W/Y543A): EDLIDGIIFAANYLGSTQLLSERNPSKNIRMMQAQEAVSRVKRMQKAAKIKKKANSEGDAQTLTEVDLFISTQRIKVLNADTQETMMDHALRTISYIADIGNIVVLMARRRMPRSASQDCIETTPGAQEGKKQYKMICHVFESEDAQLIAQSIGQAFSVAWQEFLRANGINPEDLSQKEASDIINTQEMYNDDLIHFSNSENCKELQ
Procedure: (§1) Kinetic binding rate constants were obtained using an upgraded SX17 stopped flow spectrometer (Applied Photophysics), and all experiments were conducted at 25 °C in 500 mM NaCl and 25 mM HEPES (pH 7.4). The relatively high NaCl concentration was used to improve the solubility of the proteins. The change in tryptophan fluorescence was measured using a band-pass filter (excitation at 280 nm and emission at 330 ± 30 nm) when mixing varying concentrations (2–50 μM) of the dansyl peptides with 1 μM protein or 0.5 μM semisynthetic proteins. […] For PTB variants, we used the kobs value from the fast kinetic phase for the analysis. […] We report the errors in kon and koff from the curve fitting. […] For these koff determinations, we report the standard error of the mean of three replicates. Φ values were defined as ΔΔGTS/ΔΔGeq, where ΔΔGTS = RT ln(kon^WT/kon^mut.) and ΔΔGeq = RT ln(Kd^mut./Keq^WT). Calculated coupling free energies were defined as ΔΔΔGEq = RT ln(Kd^mut.:WTKd^WT:mut./Kd^WT:WTKd^mut.:mut.) or ΔΔΔGTS = RT ln(kon^WT:WTkon^mut.:mut./kon^mut.:WTkon^WT:mut.) as previously described.[27] Propagated errors are reported.

[2] = target: T2, Mint2 PARM 364-570 (Y524W), pWT PARM (PTB domain and ARM linker) (Homo sapiens, UniProt Q99767, Y524W); test: Stopped flow binding kinetics, APP peptides to PARM (pseudo-wild type)
T2 construct: made in house; host or cells: Escherichia coli BL21(DE3)pLysS
T2 sequence (Q99767 364-570 Y524W): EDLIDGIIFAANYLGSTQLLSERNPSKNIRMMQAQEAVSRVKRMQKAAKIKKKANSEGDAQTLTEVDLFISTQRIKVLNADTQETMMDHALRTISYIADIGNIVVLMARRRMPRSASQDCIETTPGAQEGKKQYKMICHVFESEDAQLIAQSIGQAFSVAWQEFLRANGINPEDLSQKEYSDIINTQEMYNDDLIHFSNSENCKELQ
Procedure: as §1

[3] = target: T3, Mint2 PARM 364-570 (Y524W, Y543E) (Homo sapiens, UniProt Q99767, Y524W/Y543E); test: biochemical
T3 sequence (Q99767 364-570 Y524W/Y543E): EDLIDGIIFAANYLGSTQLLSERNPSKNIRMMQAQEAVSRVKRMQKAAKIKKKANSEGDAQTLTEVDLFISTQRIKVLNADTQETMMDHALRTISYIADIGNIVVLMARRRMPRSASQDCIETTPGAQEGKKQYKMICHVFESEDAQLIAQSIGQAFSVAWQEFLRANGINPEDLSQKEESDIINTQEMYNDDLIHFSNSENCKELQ

Mint2 PARMWT 364-570 = Mint2 PARMWT 364-570 (Homo sapiens, UniProt Q99767); test: biochemical
[4] = target: T4, Mint2 PTB 364-538 (without the ARM linker) (Homo sapiens, UniProt Q99767, Y524W); test: Stopped flow binding kinetics, APP peptides to PTB
T4 construct: made in house; host or cells: Escherichia coli BL21(DE3)pLysS
T4 sequence (Q99767 364-538 Y524W): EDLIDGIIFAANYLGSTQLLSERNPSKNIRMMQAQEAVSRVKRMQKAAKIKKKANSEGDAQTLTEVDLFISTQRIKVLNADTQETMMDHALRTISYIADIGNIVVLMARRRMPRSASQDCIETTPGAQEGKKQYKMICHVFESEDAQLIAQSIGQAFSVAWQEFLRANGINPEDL
Procedure: as §1

[5] = target: T1, Mint2 PARM 364-570 (Y524W, Y543A); test: biochemical
Mint2 PTB 364-538 = Mint2 PTB 364-538 (Homo sapiens, UniProt Q99767, Y524W); test: biochemical
[6] = target: T5, PARM-pWT (364-570; R455K, C483A, C501A, Y524W, C566A) (Homo sapiens, UniProt Q99767, C483A/C501A/C566A/R455K/Y524W); test: Stopped flow binding kinetics, APP A-to-E variants to PARM-pWT
T5 construct: made in house; host or cells: semisynthesis, three-segment approach (expressed fragments plus synthetic segment)
T5 sequence (Q99767 364-570 R455K/C483A/C501A/Y524W/C566A): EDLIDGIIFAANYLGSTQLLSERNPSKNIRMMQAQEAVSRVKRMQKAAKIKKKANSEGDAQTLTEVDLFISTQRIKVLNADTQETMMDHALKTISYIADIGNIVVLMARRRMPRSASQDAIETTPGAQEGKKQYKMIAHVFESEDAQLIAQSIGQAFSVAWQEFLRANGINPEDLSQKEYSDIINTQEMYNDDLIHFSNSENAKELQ
Procedure: as §1

[7] = target: Mint2 PARM 364-570 (Y524W) (Homo sapiens, UniProt Q99767, Y524W); test: biochemical
[8] = target: PTB without the ARM linker (Mint2 residues 364-538) (human, UniProt Q99767 364-538, Y524W); test: stopped-flow fluorescence kinetics; settings: both partners purified
PARM^Y543A = PARM^Y543A (human, UniProt Q99767 364-570, Y524W | Y543A); test: stopped-flow fluorescence kinetics; settings: both partners purified
PARM^Y543E = PARM^Y543E (human, UniProt Q99767 364-570, Y524W | Y543E); test: stopped-flow fluorescence kinetics; settings: both partners purified
[9] = target: pseudo-wild type (pWT) PARM domain of Mint2 (residues 364-570, Y524W) (human, UniProt Q99767 364-570, Y524W); test: stopped-flow fluorescence kinetics; settings: both partners purified
[10] = target: PARM^WT (Mint2 residues 364-570) (human, UniProt Q99767 364-570); test: stopped-flow fluorescence kinetics; settings: both partners purified

## C[C@@H](O)[C@H](NC(=O)[C@@H]1CCCN1C(=O)[C@H](CC(N)=O)NC(=O)[C@H](CCC(=O)O)NC(=O)[C@H](Cc1ccc(O)cc1)NC(=O)CNC(=O)[C@H](CC(N)=O)NC(=O)CNC(=O)[C@H](CC(N)=O)NC(=O)[C@H](CC(N)=O)NS(=O)(=O)c1cccc2c(N(C)C)cccc12)C(=O)N[C@@H](Cc1ccc(O)cc1)C(=O)NCC(=O)N[C@@H](Cc1ccccc1)C(=O)N[C@@H](Cc1ccccc1)C(=O)N[C@@H](CCC(=O)O)C(=O)O [Peptide K763G]
[1]
  Kd: 10000 ± 300 nM

## C[C@@H](O)[C@H](NC(=O)[C@@H]1CCCN1C(=O)[C@H](CC(N)=O)NC(=O)[C@H](CCC(=O)O)NC(=O)[C@H](Cc1ccc(O)cc1)NC(=O)CNC(=O)[C@H](CC(N)=O)NC(=O)CNC(=O)[C@H](CC(N)=O)NC(=O)[C@H](CC(N)=O)NS(=O)(=O)c1cccc2c(N(C)C)cccc12)C(=O)N[C@@H](Cc1ccccc1)C(=O)N[C@@H](CCCCN)C(=O)N[C@@H](Cc1ccccc1)C(=O)N[C@@H](Cc1ccccc1)C(=O)N[C@@H](CCC(=O)O)C(=O)O [Peptide Y762F]
[2]
  Kd: 4000 nM

## C[C@@H](O)[C@H](NC(=O)[C@@H]1CCCN1C(=O)[C@H](CC(N)=O)NC(=O)[C@H](CCC(=O)O)NC(=O)[C@H](Cc1ccc(O)cc1)NC(=O)CNC(=O)[C@H](CC(N)=O)NC(=O)CNC(=O)[C@H](CC(N)=O)NC(=O)[C@H](CC(N)=O)NS(=O)(=O)c1cccc2c(N(C)C)cccc12)C(=O)N[C@@H](Cc1ccc(O)cc1)C(=O)N[C@@H](CCCCN)C(=O)N[C@@H](Cc1ccccc1)C(=O)N[C@@H](Cc1cccc2ccccc12)C(=O)N[C@@H](CCC(=O)O)C(=O)O [Peptide F765Nal1]
[3]
  Ki: 1100 nM
[2]
  Kd: 1500 nM
Mint2 PARMWT 364-570
  Ki: 2600 nM
[4]
  Kd: 120 nM
[1]
  Kd: 500 nM
[5]
  Ki: 1000 nM
Mint2 PTB 364-538
  Ki: 560 nM

## C[C@H](NC(=O)[C@H](Cc1ccc(O)cc1)NC(=O)[C@@H](NC(=O)[C@@H]1CCCN1C(=O)[C@H](CC(N)=O)NC(=O)[C@H](CCC(=O)O)NC(=O)[C@H](Cc1ccc(O)cc1)NC(=O)CNC(=O)[C@H](CC(N)=O)NC(=O)CNC(=O)[C@H](CC(N)=O)NC(=O)[C@H](CC(N)=O)NS(=O)(=O)c1cccc2c(N(C)C)cccc12)[C@@H](C)O)C(=O)N[C@@H](Cc1ccccc1)C(=O)N[C@@H](Cc1ccccc1)C(=O)N[C@@H](CCC(=O)O)C(=O)O [Peptide K763A]
Mint2 PTB 364-538
  Ki: 800 nM

## NGYENPTYKFFE [APPWT (12-mer)]
[3]
  Ki: 1100 nM
Mint2 PARMWT 364-570
  Ki: 3200 nM
[5]
  Ki: 1100 nM

## C[C@@H](O)[C@H](NC(=O)[C@@H]1CCCN1C(=O)[C@H](CC(N)=O)NC(=O)[C@H](CCC(=O)O)NC(=O)[C@H](Cc1ccccc1)NC(=O)CNC(=O)[C@H](CC(N)=O)NC(=O)CNC(=O)[C@H](CC(N)=O)NC(=O)[C@H](CC(N)=O)NS(=O)(=O)c1cccc2c(N(C)C)cccc12)C(=O)N[C@@H](Cc1ccc(O)cc1)C(=O)N[C@@H](CCCCN)C(=O)N[C@@H](Cc1ccccc1)C(=O)N[C@@H](Cc1ccccc1)C(=O)N[C@@H](CCC(=O)O)C(=O)O [Peptide Y757F]
[4]
  Kd: 600 nM

## C[C@@H](O)[C@H](NC(=O)[C@@H]1CCCN1C(=O)[C@H](CC(N)=O)NC(=O)[C@H](CCC(=O)O)NC(=O)[C@H](Cc1ccc(O)cc1)NC(=O)CNC(=O)[C@H](CC(N)=O)NC(=O)CNC(=O)[C@H](CC(N)=O)NC(=O)[C@H](CC(N)=O)NS(=O)(=O)c1cccc2c(N(C)C)cccc12)C(=O)N[C@@H](Cc1ccc(O)cc1)C(=O)N[C@@H](CCCCN)C(=O)N[C@@H](Cc1ccccc1)C(=O)O[C@@H](Cc1ccccc1)C(=O)N[C@@H](CCC(=O)O)C(=O)O [Peptide F765φ] (Dansyl-NNGNGYENPTYKF[PhLac]E-OH; N-terminus and C-terminus assumed)
[6]
  Kd: 40000 ± 9000 nM
  koff: 27 s⁻¹
[6]; APP A-to-E variant vs Dansyl-APPWT
  F (Φ value, ΔΔGTS/ΔΔGeq): ~0
[6]; pH 7.4
  kon: 690000 M⁻¹ s⁻¹

## Dansyl-NNG-NGψENPTYKFFE [Peptide Y757ψ, dansyl-APP peptide with amide-to-ester backbone modification at Y757]
[6]; most likely due to a kobs outside the range of the instrument (>300 s^–1)
  kinetic transient in the stopped flow experiment: did not give a kinetic transient

## C[C@H](NC(=O)[C@H](CC(N)=O)NC(=O)[C@H](CCC(=O)O)NC(=O)[C@H](Cc1ccc(O)cc1)NC(=O)CNC(=O)[C@H](CC(N)=O)NC(=O)CNC(=O)[C@H](CC(N)=O)NC(=O)[C@H](CC(N)=O)NS(=O)(=O)c1cccc2c(N(C)C)cccc12)C(=O)N[C@H](C(=O)N[C@@H](Cc1ccc(O)cc1)C(=O)N[C@@H](CCCCN)C(=O)N[C@@H](Cc1ccccc1)C(=O)N[C@@H](Cc1ccccc1)C(=O)N[C@@H](CCC(=O)O)C(=O)O)[C@@H](C)O [Peptide P760A]
[7]
  Ki: 40000 ± 800 nM

B1: dansyl-APP^WT (peptide)
peptide: Dansyl-NGYENPTYKFFE
[8]
  koff: ~2 s⁻¹
  kon: 1.1e+07 M⁻¹ s⁻¹
  ratio of Kd values for PARM and PTB: 0.057
PARM^Y543A
  fold increase in kon against PARM: 2.5 fold
  koff: ~2 s⁻¹
PARM^Y543E
  fold increase in kon against PARM: 2.5 fold
  koff: ~2 s⁻¹
[9]
  koff: 2.3 ± 0.08 s⁻¹
  kon: 390000 ± 4000 M⁻¹ s⁻¹
[10]
  koff: 1.2 ± 0.05 s⁻¹
  kon: 380000 ± 3000 M⁻¹ s⁻¹
